What was measured:
[1] = molecular target: mTOR (Mus musculus, UniProt Q9JLN9); type: cell-based
[2] = molecular target: Human mTORC1 complex (Homo sapiens, UniProt P42345); assay: In vitro mTORC1 kinase assay; type: biochemical

Row | Structure (SMILES) | EC50 [1] [µM] | improved mTOR cellular potency compared to screening hit compound 1 ([1]; relative to compound 1) [fold] | improvement in cellular potency, 7 versus 8 ([1]; relative to compound 8) [fold] | IC50 [1] [µM] | IC50 [2] [µM]
1 | CC(=O)N1CCN(c2ccc(-n3c(=O)ccc4cnc5ccc(-c6cnc7ccccc7c6)cc5c43)cc2C(F)(F)F)CC1 [Compound 7, 1-(4-(4-acetylpiperazin-1-yl)-3-(trifluoromethyl)phenyl)-9-(quinolin-3-yl)benzo[h][1,6]naphthyridin-2(1H)-one] | 0.003 | 1000 | 13 |  | 
2 | COCCC(=O)N1CCN(c2ccc(Nc3ccnc4ccc(-c5cnc6ccccc6c5)cc34)cc2C(F)(F)F)CC1 [Compound 16] |  |  |  | 0.04 | 0.0826

— publication PMC3893826 (Journal of medicinal chemistry, 2010)
